Data: patent US11780833B2, “Emetine derivatives, prodrugs containing same, and methods of treating conditions using same” (HOWARD UNIVERSITY, priority 2011, dated 2023)
Where two headings read alike, the source gives them in different places.

Experiments:
[1] = pH-responsiveness by HPLC: emetine released in aqueous phosphate buffer; assay type: physicochemical; conditions: 37° C.
Protocol: Relative rates of hydrolysis of the compounds listed in Table 5 below over a 48 hour period were evaluated using the percent emetine released from the acid catalyzed hydrolysis of compounds 1 to 6.
The compounds were incubated in aqueous phosphate buffer at pH 5.5, 6.5 and 7.4 at 37° C. over a 48 hour period. High performance liquid chromatography (HPLC) was employed to analyze the samples and quantify how much emetine was released. The compounds whose hydrolysis to emetine is shown in table 5 are all 100% stable at physiological pH 7.4 up to a 5 day exposure.

[2] = In vivo toxicity study in mice
Text: Each experiment or dosage involved three mice, and drug solutions were made in 1% DMSO/PBS. Each experiment was done three times.
The compounds were subjected to in vivo toxicity studies as follows. […] This observation was the same on the third and fourth day.

[3] = test system: LNCaP cells; assay: Cytotoxicity in LNCaP prostate cancer cell line; assay type: cell-based; conditions: Homo sapiens
Protocol: (§1) Studies were carried out on three prostate cancer cell lines: LNCaP, PC3, and DU145. […] There was not a significant difference in cytotoxicity of emetine between days 3 and 7. […] This increase is most likely due to the release of emetine from the dithiocarbamate salt over the time period. Further drug release studies at pH 5 confirmed about 45% release of emetine from the dithiocarbamate salt after 3-day incubation at this acidic pH maintained at 37° C., whereas release of emetine from the dithiocarbamate salt was not observed at physiological pH (e.g., about 7.4).
(§2) Various compounds prepared according to Examples 1-5 were studied in LNCaP, PC3, and DU145 cells.

[4] = test system: DU145 cells; assay: Cytotoxicity in 100% confluent DU145 cells (Example 9); assay type: cell-based; conditions: Homo sapiens, DU-145, 120 h; DU145, 100% confluent cells, medium pH 6.7, day 5
Protocol: (§3) The cytotoxicity of emetine and Compound 2 (as produced above in Example 1 and referred to in the figures as “ESA44”) was evaluated in DU145 and PC3 cells using 100% confluent cells. Cells were plated at 40,000 cells per well and allowed to grow for 4 days until the pH of the medium was 6.7. Compound 2 was added in RPMI, pH 7.0. The effect of the pH on the hydrolysis of Compound 2 to release emetine was evaluated. FIGS. 1 and 2 are graphs showing the viability of DU145 and PC3 cells as percent of vehicle on day 5 versus concentration of emetine and Compound 2.

[5] = test system: PC3 cells; assay: Cytotoxicity in 100% confluent PC3 cells (Example 9); assay type: cell-based; conditions: Homo sapiens, PC-3, 120 h; PC3, 100% confluent cells, medium pH 6.7, day 5
Protocol: as §3

[6] = test system: DU145 cells; assay: cells; assay type: cell-based; conditions: Homo sapiens
Protocol: as §1, §2
(§4) Various compounds prepared according to Example 6 were studied in DU145 and PC3 cells. The IC50 was determined at 3, 5, and 7 days.

[7] = test system: PC3 cells; assay: cells; assay type: cell-based; conditions: Homo sapiens
Protocol: as §1, §2, §4

Structure (SMILES): CCC1CN2CCc3cc(OC)c(OC)cc3C2CC1CC1c2cc(OC)c(OC)cc2CCN1C(=O)/C=C(/C)C(=O)O (stereo not drawn) [Compound 5]
- % Emetine at pH 5.5 ([1]; pH 5.5, 0 hr): 0.0%
- % Emetine at pH 5.5 ([1]; pH 5.5, 24 hrs): 61.5%
- % Emetine at pH 5.5 ([1]; pH 5.5, 48 hrs): 77.3%
- % Emetine at pH 6.5 ([1]; pH 6.5, 0 hr): 0.0%
- % Emetine at pH 6.5 ([1]; pH 6.5, 24 hrs): 24.9%
- % Emetine at pH 7.4 to 8.0 over 72 hrs ([1]; pH 7.4 to 8.0, 0 hrs): 0.0%
- % Emetine at pH 7.4 to 8.0 over 72 hrs ([1]; pH 7.4 to 8.0, 24 hrs): 0.0%
- % Emetine at pH 7.4 to 8.0 over 72 hrs ([1]; pH 7.4 to 8.0, 48 hrs): 0.0%
- toxicity observation ([2]; 11 and 33 MPK, day 5): no noticeable toxicity effect
- toxicity observation ([2]; 100 MPK or below (33 and 11 MPK), through third and fourth day): no noticeable toxicity
- toxicity observation ([2]; 100 MPK, day 5): slight weight loss

Structure (SMILES): CC[C@H]1CN2CCc3cc(OC)c(OC)cc3[C@@H]2C[C@@H]1C[C@H]1NCCc2cc(OC)c(OC)cc21 [Emetine]
- IC50 ([3]; 72 h, 3 day exposure, read-out: IC50): 0.0329 µM
- IC50 ([3]; 168 h, 7 days, read-out: IC50 after 7 days): 0.0278 ± 0.00384 µM
- IC50 ([3]; 168 h, seven day exposure, read-out: IC50): 0.0316 µM
- IC50 [4]: 12.9 ± 2.39 µM
- IC50 [5]: 3.85 ± 0.149 µM
- IC50 ([6]; DU-145, 72 h, DU145, 3 day exposure, read-out: IC50): 0.0379 µM
- IC50 ([6]; DU-145, 168 h, DU145, 7 days, read-out: IC50 after 7 days): 0.0237 ± 0.00122 µM
- IC50 ([6]; DU-145, 168 h, DU145, seven day exposure, read-out: IC50): 0.0234 µM
- IC50 ([7]; PC-3, 72 h, PC3, 3 day exposure, read-out: IC50): 0.0351 µM
- IC50 ([7]; PC-3, 168 h, PC3, 7 days, read-out: IC50 after 7 days): 0.0268 ± 0.00228 µM
- IC50 ([7]; PC-3, 168 h, PC3, seven day exposure, read-out: IC50): 0.0294 µM
- toxicity observation ([2]; 33 and 11 MPK): slight weight loss
- toxicity observation ([2]; single dose 100 MPK, within 48 hours): killed all three mice
